{"source": "ChEMBL document CHEMBL1275601", "about": "“Striking species difference in the contribution of concentrative nucleoside transporter 2 to nucleoside uptake between mouse and rat hepatocytes” (Antimicrob Agents Chemother, 2010)", "assay_type_in_all_cases": "cell-based", "key": {"[1]": {"target": "T1, Sodium/nucleoside cotransporter 1 (Rattus norvegicus) (UniProt Q62674)", "T1 sequence (whole entry)": "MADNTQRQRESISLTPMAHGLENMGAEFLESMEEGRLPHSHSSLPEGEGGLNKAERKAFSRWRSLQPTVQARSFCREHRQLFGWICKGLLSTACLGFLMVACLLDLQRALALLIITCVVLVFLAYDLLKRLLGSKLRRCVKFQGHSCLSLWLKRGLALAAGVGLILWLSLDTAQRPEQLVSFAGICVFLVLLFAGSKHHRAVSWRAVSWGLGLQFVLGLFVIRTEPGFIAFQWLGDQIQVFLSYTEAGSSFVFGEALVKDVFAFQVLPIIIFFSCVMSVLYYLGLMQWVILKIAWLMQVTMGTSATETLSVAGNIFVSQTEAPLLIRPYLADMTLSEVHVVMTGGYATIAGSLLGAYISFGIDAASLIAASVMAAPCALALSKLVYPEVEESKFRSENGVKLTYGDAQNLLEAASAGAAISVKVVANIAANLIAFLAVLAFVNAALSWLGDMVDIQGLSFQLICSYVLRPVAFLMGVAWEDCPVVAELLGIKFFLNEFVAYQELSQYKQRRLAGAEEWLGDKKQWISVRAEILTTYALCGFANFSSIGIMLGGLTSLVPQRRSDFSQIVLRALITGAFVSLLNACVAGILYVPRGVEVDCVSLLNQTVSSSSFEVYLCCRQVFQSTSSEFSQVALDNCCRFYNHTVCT", "experiment": "Transport through CNT1 in rat hepatocytes by oil filtration assay in presence of sodium ions in Kreb-henseleit buffer", "conditions": "Hepatocyte"}, "[2]": {"system": "Hepatocyte", "experiment": "Transport through CNT3 in rat hepatocytes by oil filtration assay in presence of sodium ions in Kreb-henseleit buffer containing 100 uM NBMPR and 1 mM inosine"}, "[3]": {"target": "T2, Equilibrative nucleoside transporter 1 (Mus musculus) (UniProt Q9JIM1)", "T2 sequence (whole entry)": "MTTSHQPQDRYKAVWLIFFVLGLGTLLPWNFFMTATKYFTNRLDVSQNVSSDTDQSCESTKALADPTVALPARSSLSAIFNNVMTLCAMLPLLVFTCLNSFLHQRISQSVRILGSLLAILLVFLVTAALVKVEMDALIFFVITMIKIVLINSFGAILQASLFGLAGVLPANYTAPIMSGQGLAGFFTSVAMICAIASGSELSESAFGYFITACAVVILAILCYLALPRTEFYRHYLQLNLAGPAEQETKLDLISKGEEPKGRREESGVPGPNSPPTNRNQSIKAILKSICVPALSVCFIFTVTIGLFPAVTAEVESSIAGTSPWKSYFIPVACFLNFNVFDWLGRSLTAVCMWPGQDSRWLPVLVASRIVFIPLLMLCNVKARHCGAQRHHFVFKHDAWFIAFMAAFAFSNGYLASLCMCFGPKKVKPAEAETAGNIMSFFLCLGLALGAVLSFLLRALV", "experiment": "Transport through ENT1 in mouse hepatocytes by oil filtration assay in presence of sodium ions in Kreb-henseleit buffer", "conditions": "Hepatocyte"}, "[4]": {"target": "T3, Sodium/nucleoside cotransporter 2 (Rattus norvegicus) (UniProt Q62773)", "T3 sequence (whole entry)": "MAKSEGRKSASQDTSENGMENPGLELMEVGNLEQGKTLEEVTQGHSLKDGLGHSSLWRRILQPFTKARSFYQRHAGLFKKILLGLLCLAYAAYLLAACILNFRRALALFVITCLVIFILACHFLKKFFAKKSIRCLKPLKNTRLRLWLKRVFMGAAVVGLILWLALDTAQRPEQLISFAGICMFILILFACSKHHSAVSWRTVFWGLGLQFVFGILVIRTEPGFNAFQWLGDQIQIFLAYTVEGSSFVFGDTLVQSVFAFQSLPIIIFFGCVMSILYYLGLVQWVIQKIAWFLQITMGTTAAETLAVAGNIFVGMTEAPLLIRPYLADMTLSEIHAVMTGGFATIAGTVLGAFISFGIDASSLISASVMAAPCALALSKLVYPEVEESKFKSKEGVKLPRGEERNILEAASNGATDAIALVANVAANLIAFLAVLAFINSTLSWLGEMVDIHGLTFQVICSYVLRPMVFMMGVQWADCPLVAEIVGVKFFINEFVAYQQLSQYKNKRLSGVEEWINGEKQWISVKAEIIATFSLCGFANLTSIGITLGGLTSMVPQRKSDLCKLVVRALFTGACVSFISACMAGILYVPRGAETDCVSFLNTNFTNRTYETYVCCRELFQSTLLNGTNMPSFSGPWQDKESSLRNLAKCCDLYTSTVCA", "experiment": "Transport through CNT2 in rat hepatocytes by oil filtration assay", "conditions": "Hepatocyte"}, "[5]": {"target": "T3, Sodium/nucleoside cotransporter 2 (Rattus norvegicus)", "experiment": "Transport through CNT2 in rat hepatocytes by oil filtration assay in presence of sodium ions in Kreb-henseleit buffer", "conditions": "Hepatocyte"}, "[6]": {"target": "T4, Equilibrative nucleoside transporter 2 (Mus musculus) (UniProt Q61672)", "T4 sequence (whole entry)": "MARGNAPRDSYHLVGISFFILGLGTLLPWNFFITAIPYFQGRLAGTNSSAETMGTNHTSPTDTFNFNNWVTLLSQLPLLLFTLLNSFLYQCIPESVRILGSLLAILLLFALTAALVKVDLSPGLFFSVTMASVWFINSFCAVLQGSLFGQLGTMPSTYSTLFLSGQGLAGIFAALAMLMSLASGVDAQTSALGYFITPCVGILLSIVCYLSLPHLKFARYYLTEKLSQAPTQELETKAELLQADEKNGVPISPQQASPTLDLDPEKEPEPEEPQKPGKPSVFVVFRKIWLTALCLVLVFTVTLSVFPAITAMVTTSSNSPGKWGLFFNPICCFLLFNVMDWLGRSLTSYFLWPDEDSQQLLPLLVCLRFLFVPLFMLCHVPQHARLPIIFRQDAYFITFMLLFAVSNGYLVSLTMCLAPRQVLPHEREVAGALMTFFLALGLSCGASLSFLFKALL", "experiment": "Transport through ENT2 in mouse hepatocytes by oil filtration assay in presence 100 uM of transporter inhibitor NBMRP", "conditions": "Hepatocyte"}, "[7]": {"target": "T5, Equilibrative nucleoside transporter 1 (Rattus norvegicus) (UniProt O54698)", "T5 sequence (whole entry)": "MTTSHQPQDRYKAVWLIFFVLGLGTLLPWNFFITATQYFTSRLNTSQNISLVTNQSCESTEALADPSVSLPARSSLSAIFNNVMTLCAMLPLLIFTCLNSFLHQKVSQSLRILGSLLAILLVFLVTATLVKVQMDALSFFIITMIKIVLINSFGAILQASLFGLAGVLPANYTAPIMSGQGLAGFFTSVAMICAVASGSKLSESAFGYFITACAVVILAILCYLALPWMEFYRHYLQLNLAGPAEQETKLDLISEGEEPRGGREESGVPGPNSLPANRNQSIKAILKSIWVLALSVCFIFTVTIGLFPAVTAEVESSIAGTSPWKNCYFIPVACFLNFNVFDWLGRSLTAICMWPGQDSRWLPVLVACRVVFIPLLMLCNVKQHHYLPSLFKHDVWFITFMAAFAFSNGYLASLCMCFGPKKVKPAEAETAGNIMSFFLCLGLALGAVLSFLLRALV", "experiment": "Transport through ENT1 in rat hepatocytes by oil filtration assay in presence of sodium ions in Kreb-henseleit buffer", "conditions": "Hepatocyte"}, "[8]": {"target": "T2, Equilibrative nucleoside transporter 1 (Mus musculus)", "experiment": "Transport through ENT1 in mouse hepatocytes by oil filtration assay in presence 100 nM of transporter inhibitor NBMRP", "conditions": "Hepatocyte"}}, "note": "The source made the active and inactive calls. The rule behind the calls is not given here.", "data": [{"molecule": "NC(=O)c1ncn([C@@H]2O[C@H](CO)[C@@H](O)[C@H]2O)n1", "values": [{"measurement": "Activity", "setting": "[1]", "result": "Active"}, {"measurement": "Activity", "setting": "[2]", "result": "inactive"}, {"measurement": "Activity", "setting": "[3]", "result": "inactive"}, {"measurement": "Activity", "setting": "[4]", "result": "Active"}, {"measurement": "Activity", "setting": "[5]", "result": "Active"}, {"measurement": "Activity", "setting": "[6]", "result": "inactive"}, {"measurement": "Activity", "setting": "[7]", "result": "inactive"}, {"measurement": "Activity", "setting": "[8]", "result": "inactive"}]}, {"molecule": "Nc1ncnc2c1ncn2[C@@H]1O[C@H](CO)[C@@H](O)[C@H]1O", "values": [{"measurement": "Activity", "setting": "[1]", "result": "Active"}, {"measurement": "Activity", "setting": "[2]", "result": "inactive"}, {"measurement": "Activity", "setting": "[3]", "result": "inactive"}, {"measurement": "Activity", "setting": "[4]", "result": "inactive"}, {"measurement": "Activity", "setting": "[5]", "result": "Active"}, {"measurement": "Activity", "setting": "[6]", "result": "inactive"}, {"measurement": "Activity", "setting": "[7]", "result": "inactive"}, {"measurement": "Activity", "setting": "[8]", "result": "inactive"}]}]}
